{"source": "ChEMBL document CHEMBL1147311", "about": "“Plant antimutagenic agents, 7. Structure and antimutagenic properties of cymobarbatol and 4-isocymobarbatol, new cymopols from green alga (Cymopolia barbata)” (J Nat Prod, 1989)", "key": {"Salmonella typhimurium [1]": {"tested_on": "Salmonella typhimurium", "test": "Toxicity in Salmonella Typhimurium T100 at 75 to 300 ug/plate in presence of histidine", "format": "organism-based, Salmonella enterica subsp. enterica serovar Typhimurium"}, "Salmonella typhimurium [2]": {"tested_on": "Salmonella typhimurium", "test": "Antimutagenic activity in Salmonella Typhimurium T98 assessed as inhibition of 2-aminoanthracene-induced mutation at 150 ug/plate", "format": "functional, organism-based", "details": "Salmonella enterica subsp. enterica serovar Typhimurium"}, "Salmonella typhimurium [3]": {"tested_on": "Salmonella typhimurium", "test": "Antimutagenic activity in Salmonella Typhimurium T98 assessed as inhibition of 2-aminoanthracene-induced mutation at 75 ug/plate", "format": "functional, organism-based", "details": "Salmonella enterica subsp. enterica serovar Typhimurium"}, "Salmonella typhimurium [4]": {"tested_on": "Salmonella typhimurium", "test": "Toxicity in Salmonella Typhimurium T98 at 75 to 300 ug/plate in presence of histidine", "format": "organism-based, Salmonella enterica subsp. enterica serovar Typhimurium"}, "Salmonella typhimurium [5]": {"tested_on": "Salmonella typhimurium", "test": "Antimutagenic activity in Salmonella Typhimurium T98 assessed as inhibition of 2-aminoanthracene-induced mutation at 300 ug/plate", "format": "functional, organism-based", "details": "Salmonella enterica subsp. enterica serovar Typhimurium"}, "Salmonella typhimurium [6]": {"tested_on": "Salmonella typhimurium", "test": "Antimutagenic activity in Salmonella Typhimurium T100 assessed as inhibition of ethyl methanesulfonate-induced mutation at 32.5 to 300 ug/plate in presence of Ames S9 fractions", "format": "functional, Salmonella enterica subsp. enterica serovar Typhimurium"}, "Salmonella typhimurium [7]": {"tested_on": "Salmonella typhimurium", "test": "Toxicity in Salmonella Typhimurium T100 at 75 to 600 ug/plate in presence of histidine", "format": "organism-based, Salmonella enterica subsp. enterica serovar Typhimurium"}, "Salmonella typhimurium [8]": {"tested_on": "Salmonella typhimurium", "test": "Toxicity in Salmonella Typhimurium T98 at 75 to 600 ug/plate in presence of histidine", "format": "organism-based, Salmonella enterica subsp. enterica serovar Typhimurium"}}, "note": "Calls of active or inactive are those of the source. The rule behind the calls is not given here."}
{"smiles": "CC1(C)[C@@H](Br)CC[C@]2(C)Oc3cc(Br)c(O)cc3C[C@@H]12", "values": [{"measurement": "Activity", "setting": "Salmonella typhimurium [1]", "value": "Non-toxic"}, {"measurement": "Activity", "setting": "Salmonella typhimurium [2]", "value": "Active"}, {"measurement": "Activity", "setting": "Salmonella typhimurium [3]", "value": "Active"}, {"measurement": "Activity", "setting": "Salmonella typhimurium [4]", "value": "Non-toxic"}, {"measurement": "Activity", "setting": "Salmonella typhimurium [5]", "value": "Active"}]}
{"smiles": "CC1(C)[C@@H](Br)CC[C@@]2(C)Oc3cc(Br)c(O)cc3C[C@@H]12", "note": "[CYMOBARBATOL]", "values": [{"measurement": "Activity", "setting": "Salmonella typhimurium [1]", "value": "Non-toxic"}, {"measurement": "Activity", "setting": "Salmonella typhimurium [2]", "value": "Active"}, {"measurement": "Activity", "setting": "Salmonella typhimurium [4]", "value": "Non-toxic"}, {"measurement": "Activity", "setting": "Salmonella typhimurium [5]", "value": "Active"}, {"measurement": "inhibition (INH)", "setting": "Salmonella typhimurium [6]", "value": 80, "unit": "%"}]}
{"smiles": "CC(C)=CCC/C(C)=C/Cc1cc(O)c(Br)cc1O", "note": "[CYMOPOL]", "values": [{"measurement": "Activity", "setting": "Salmonella typhimurium [7]", "value": "Toxic"}, {"measurement": "Activity", "setting": "Salmonella typhimurium [8]", "value": "Toxic"}]}
